# US20200031778A1, “NOVEL 5-SUBSTITUTED IMIDAZOLYLMETHYL DERIVATIVES” (Bayer CropScience Aktiengesellschaft, priority 2016, published 2020)
# Test: Log P by HPLC on reversed phase columns (EEC directive 79/831 Annex V.A8; methods [a], [b], [c])
# Assay type: physicochemical
# Conditions: not given
# Procedure: Measurement of Log P values was performed according to EEC directive 79/831 Annex V.A8 by HPLC (High Performance Liquid Chromatography) on reversed phase columns with the following methods: • ^[a] Log P value is determined by measurement of LC-UV, in an acidic range, with 0.1% formic acid in water and acetonitrile as eluent (linear gradient from 10% acetonitrile to 95% acetonitrile). • ^[b] Log P value is determined by measurement of LC-UV, in a neutral range, with 0.001 molar ammonium acetate solution in water and acetonitrile as eluent (linear gradient from 10% acetonitrile to 95% acetonitrile). • ^[c] Log P value is determined by measurement of LC-UV, in an acidic range, with 0.1% phosphoric acid and acetonitrile as eluent (linear gradient from 10% acetonitrile to 95% acetonitrile).
# If more than one Log P value is available within the same method, all the values are given and separated by “+”.
# Calibration was done with straight-chain alkan2-ones (with 3 to 16 carbon atoms) with known Log P values (measurement of Log P values using retention times with linear interpolation between successive alkanones). Lambda-max-values were determined using UV-spectra from 200 nm to 400 nm and the peak values of the chromatographic signals.
row,Structure (SMILES),LogP
1,N#Cc1cncn1CC(O)(c1c(F)cc(Cl)cc1F)C1(F)CC1 (stereo not shown) [I-519],2.36^[a]
2,N#Cc1cncn1CC(O)(c1cccc(Cl)c1Cl)C1(Cl)CC1 (stereo not shown) [I-337],2.52^[a]
3,N#Cc1cncn1CC(O)(CC1CC1)c1cc(F)c(Cl)c(F)c1 (stereo not shown) [I-499],2.73^[a]
4,OC(Cn1cncc1Cl)c1ccc(Oc2ccc(OC(F)(F)F)cc2)c(Br)c1 (stereo not shown) [I-05],2.82^[a]
5,N#Cc1cncn1CC(O)(c1cc(Cl)c(F)cc1F)C1(Cl)CC1 (stereo not shown) [I-586],2.61^[a]
6,N#Cc1cncn1CC(O)(c1ccc(Br)c(Cl)c1Cl)C1(F)CC1 (stereo not shown) [I-681],2.80^[a]
7,N#Cc1cncn1CC(O)(c1ccc(F)nc1F)C1(F)CC1 (stereo not shown) [I-551],1.79^[a]
8,N#Cc1cncn1CC(O)(c1c(F)cccc1Cl)C1(F)CC1 (stereo not shown) [I-434],2.08^[a]
9,CCOC(Cn1cncc1Br)c1ccc(Oc2ccc(Cl)cc2)cc1C(F)(F)F (stereo not shown) [I-33],4.16^[a]
10,N#Cc1cncn1CC(O)c1ccc(Oc2ccc(Br)cc2)cc1F (stereo not shown) [I-48],3.04^[a]
11,OC(Cn1cncc1F)c1cnc(Oc2ccc(OC(F)(F)F)cc2)cc1C(F)(F)F (stereo not shown) [I-121],2.42^[a]
12,N#Cc1cncn1CC(O)(CC1CC1)c1cccc(F)c1F (stereo not shown) [I-517],2.20^[a]
13,N#Cc1cncn1CC(O)(c1cc(Br)ccc1F)C1(Cl)CC1 (stereo not shown) [I-632],2.49^[a]
14,CC(C)(C)C(O)(Cn1cncc1C#N)c1cc(F)c(F)c(F)c1 (stereo not shown) [I-462],2.76^[a]
15,N#Cc1cncn1CC(O)(CC1CC1)c1cnc(Cl)cc1Cl (stereo not shown) [I-510],2.07^[a]
16,CC(O)(Cn1cncc1Cl)c1ccc(Oc2ccc(Cl)cc2)cc1Cl (stereo not shown) [I-167],2.86^[a]
17,N#Cc1cncn1CC(O)(c1c(F)ccc(F)c1Cl)C1(F)CC1 (stereo not shown) [I-567],2.15^[a]

row,Structure (SMILES),LogP
1,N#Cc1cncn1CC(O)(c1ccccc1C(F)(F)F)C1(F)CC1 (stereo not shown) [I-348],2.28^[a]
2,CCCCC(O)(Cn1cncc1C#N)c1ccccc1Br (stereo not shown) [I-283],2.89^[a]
3,N#Cc1cncn1CC(O)(c1ccc(Br)cc1Br)C1(F)CC1 (stereo not shown) [I-433],2.71^[a]
4,"CCCC(C)C(O)(Cn1cncc1C#N)c1ccc(Cl)cc1 (single isomer, unassigned) [I-328]",3.15^[a]
5,OC(Cn1cncc1F)(c1ccc(Cl)cc1Br)C1(F)CC1 (stereo not shown) [I-431],1.73^[a]
6,OC(Cn1cncc1Cl)c1ccc(Oc2ccc(Cl)cc2)cc1Cl (stereo not shown) [I-01],2.64^[a]
7,N#Cc1cncn1CC(O)(c1c(F)cc(F)cc1F)C1(F)CC1 (stereo not shown) [I-518],2.07^[a]
8,CC(O)(Cn1cncc1F)c1cnc(Oc2ccc(Cl)cc2F)cc1C(F)(F)F (stereo not shown) [I-229],2.43^[a]
9,N#Cc1cncn1CC(O)(c1ccc(Br)cc1F)C1CC1 (stereo not shown) [I-404],2.62^[a]
10,N#Cc1cncn1CC(O)(c1cc(Cl)c(Cl)cc1Cl)C1(Cl)CC1 (stereo not shown) [I-562],2.98^[a]
11,N#Cc1cncn1CC(O)(c1ccc(F)cc1F)C1(Cl)CC1 (stereo not shown) [I-355],2.28^[a]
12,N#Cc1cncn1CC(O)c1ccccc1Cl (stereo not shown) [I-138],1.57^[a]
13,N#Cc1cncn1CC(O)(CC1CC1)c1cc(Br)cc(Br)c1 (stereo not shown) [I-498],2.99^[a]
14,N#Cc1cncn1CC(O)(c1ccc(C2CC2)cc1Cl)C1CC1 (stereo not shown) [I-406],2.92^[a]
15,CCCC(C)C=CC(O)(Cn1cncc1C#N)C1(Cl)CC1 (stereo not shown) [I-689],3.41^[a]
16,N#Cc1cncn1CC(O)(C#CC1(c2ccc(F)cc2)CC1)C1(Cl)CC1 (stereo not shown) [I-605],2.98^[a]

# More lines, now with the values ahead:
row,LogP,Structure (SMILES)
1,2.27^[a],N#Cc1cncn1CC(O)(c1c(F)cc(F)cc1Br)C1(F)CC1 (stereo not shown) [I-547]
2,2.31^[a],N#Cc1cncn1CC(O)(c1ccc(F)cc1Br)C1(F)CC1 (stereo not shown) [I-357]
3,3.65^[a],COC(Cn1cncc1C#N)c1ccc(Oc2ccc(Cl)cc2)cc1F (stereo not shown) [I-60]
4,2.40^[a],N#Cc1cncn1CC(O)(c1cccc(Cl)c1F)C1(Cl)CC1 (stereo not shown) [I-553]
5,1.36^[a],C#CC(O)(Cn1cncc1C#N)C1(Cl)CC1 (stereo not shown) [I-670]
6,2.54^[a],CCOC(Cn1cncc1C(N)=O)c1ccc(Oc2ccc(Cl)cc2)cc1C(F)(F)F (stereo not shown) [I-83]
7,4.51^[a],COC(C)(Cn1cncc1C#N)c1ccc(Oc2ccc(Br)cc2)cc1C(F)(F)F (stereo not shown) [I-296]
8,2.36^[a],N#Cc1cncn1CC(O)(c1cc(F)c(F)cc1Br)C1(F)CC1 (stereo not shown) [I-688]
9,2.27^[a],N#Cc1cncn1CC(O)(c1ccc(Cl)cc1)C1CC1 (stereo not shown) [I-305]
10,2.73^[a],"CCC(C)C(O)(Cn1cncc1C#N)c1ccc(Cl)cc1 (single isomer, unassigned) [I-325]"
11,3.03^[a],N#Cc1cncn1CC(O)(c1ccc(C#CC2CC2)cc1Cl)C1(F)CC1 (stereo not shown) [I-639]
12,2.02^[a],N#Cc1cncn1CC(O)(c1cccc(F)c1F)C1(F)CC1 (stereo not shown) [I-524]
13,3.27^[a],CC(O)(Cn1cncc1C#N)c1cnc(Oc2ccc(C(F)(F)F)cc2)cc1Br (stereo not shown) [I-253]
14,2.41^[a],N#Cc1cncn1CC(O)c1cnc(Oc2ccc(Br)nc2)cc1C(F)(F)F (stereo not shown) [I-153]
15,3.73^[a],CC(O)(Cn1cncc1C#N)c1ccc(Oc2ccc(Br)cc2)cc1Br (stereo not shown) [I-219]
16,3.39^[a],CC(C)(C)CC(O)(Cn1cncc1C#N)c1ccc(F)cc1Cl (stereo not shown) [I-259]
17,2.36^[a],N#Cc1cncn1CC(O)(CC1CC1)c1cc(F)c(F)cc1F (stereo not shown) [I-514]

row,LogP,Structure (SMILES)
1,3.91^[a],N#Cc1cncn1CC(O)(CCCC1CCCCC1)CC1CC1 (stereo not shown) [I-666]
2,3.19^[a],CCCC(O)(Cn1cncc1C#N)c1ccc(C2CC2)cc1Cl (stereo not shown) [I-407]
3,2.88^[a],CC(C)CC(O)(Cn1cncc1C#N)c1ccccc1C(F)(F)F (stereo not shown) [I-343]
4,3.25^[a],CC(O)(Cn1cncc1Cl)c1ccc(Oc2ccc(I)cc2)cc1Br (stereo not shown) [I-187]
5,2.63^[a],Cc1c(Cl)ccc(C(O)(Cn2cncc2C#N)C2(F)CC2)c1F (stereo not shown) [I-685]
6,1.11^[a],C#CC(O)(Cn1cncc1C#N)C1(F)CC1 (stereo not shown) [I-654]
7,3.11^[a],CCc1ccc(C#CC(O)(Cn2cncc2C#N)C2(Cl)CC2)cc1 (stereo not shown) [I-320]
8,2.43^[a],N#Cc1cncn1CC(O)(CC1CC1)c1cc(Cl)ccc1F (stereo not shown) [I-516]
9,3.72^[a],COC(Cn1cncc1Br)c1ccc(Oc2ccc(Br)cc2)cc1Br (stereo not shown) [I-51]
10,3.15^[a],N#Cc1cncn1CC(O)c1ccc(Oc2ccc(Cl)cc2)nc1C(F)(F)F (stereo not shown) [I-124]
11,2.47^[a],CCCCC(O)(Cn1cncc1C#N)c1ccc(F)cc1 (stereo not shown) [I-228]
12,2.58^[a],Cc1ccc(C(O)(Cn2cncc2C#N)C2(Cl)CC2)c(Cl)c1 (stereo not shown) [I-331]
13,3.44^[a],N#Cc1cncn1CC(O)c1ccc(Oc2ccc(I)cc2)cc1Cl (stereo not shown) [I-95]
14,2.78^[a],CC(O)(Cn1cncc1Cl)c1ccc(Oc2ccc(C(F)(F)F)cc2)c(Br)c1 (stereo not shown) [I-160]
15,3.02^[a],N#Cc1cncn1CC(O)(C#CCC1CCCCC1)C1CC1 (stereo not shown) [I-591]
16,2.18^[a],N#Cc1cncn1CC(O)(CC1CC1)c1c(F)cccc1F (stereo not shown) [I-513]
17,2.23^[a],N#Cc1cncn1CC(O)(c1c(F)ccc(F)c1F)C1(Cl)CC1 (stereo not shown) [I-615]

# Same assay, conditions: reversed phase HPLC column; method [a], HPLC on reversed phase columns
row,chromatographic logP,Structure (SMILES)
1,3.79,"N#Cc1cncn1CC(O)(CCC1CCCCC1)C1(Cl)CC1 (stereo not shown) [I-660, 1-[2-(1-chlorocyclopropyl)-4-cyclohexyl-2-hydroxybutyl]-1H-imidazole-5-carbonitrile]"

# Same assay, conditions: reversed phase HPLC column; method [a]: LC-UV, acidic range, 0.1% formic acid in water and acetonitrile as eluent (linear gradient from 10% to 95% acetonitrile)
row,chromatographic logP,Structure (SMILES)
1,0.97,O=C(Cn1cncc1Cl)c1ccc(O)cc1Cl [IX-145]
2,1.75,N#Cc1cncn1CC(=O)c1ccc(F)cc1F [IX-87]
